Measured values as given in patent US8685970B2, “Quinolines and related analogs as sirtuin modulators” (GlaxoSmithKline, LLC, priority 2008, dated 2014).

target: T1, SIRT1 (Homo sapiens, UniProt Q96EB6); experiment: Mass spectrometry based SIRT1 deacetylation assay (activation); type: biochemical; conditions: 10 nM SIRT1, 0.5 μM peptide substrate, 120 μM βNAD+, 25 min at 25° C.
T1 sequence (Q96EB6 1-747): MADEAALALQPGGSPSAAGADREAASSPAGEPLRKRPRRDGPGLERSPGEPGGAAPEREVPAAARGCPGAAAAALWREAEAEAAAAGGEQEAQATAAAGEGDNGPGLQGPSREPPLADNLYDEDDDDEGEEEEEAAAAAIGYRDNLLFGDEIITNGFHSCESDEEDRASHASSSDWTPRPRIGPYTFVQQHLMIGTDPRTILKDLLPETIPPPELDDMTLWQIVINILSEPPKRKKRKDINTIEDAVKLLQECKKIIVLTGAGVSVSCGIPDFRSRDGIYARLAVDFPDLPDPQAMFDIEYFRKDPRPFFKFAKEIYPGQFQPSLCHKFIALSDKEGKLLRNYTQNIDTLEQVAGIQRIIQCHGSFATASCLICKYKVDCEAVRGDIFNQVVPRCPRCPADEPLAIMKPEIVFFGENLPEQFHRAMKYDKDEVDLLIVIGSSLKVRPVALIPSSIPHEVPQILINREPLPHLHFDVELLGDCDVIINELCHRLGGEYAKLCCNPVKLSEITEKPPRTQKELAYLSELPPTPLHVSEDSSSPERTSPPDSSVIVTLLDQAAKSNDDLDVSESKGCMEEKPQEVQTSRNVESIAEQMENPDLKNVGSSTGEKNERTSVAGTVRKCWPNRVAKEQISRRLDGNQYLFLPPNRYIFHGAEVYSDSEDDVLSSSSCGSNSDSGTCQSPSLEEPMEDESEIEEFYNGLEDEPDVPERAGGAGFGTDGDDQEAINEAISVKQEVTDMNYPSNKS
Outline: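 Activation reported as EC1.5, the compound concentration producing 150% of DMSO-control deacetylation, plus maximum fold activation. Readout is mass-spectrometric ratio of deacetylated to acetylated p53-based peptide (0.5 μM) after 25 min, 25 °C, with 120 μM βNAD+ and 10 nM His-tagged human SIRT1, pH 8.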

| Structure (SMILES) | % Fold Act. (percent maximum fold activation) | EC1.5 (concentration of test compound that results in 150% activation of SIRT1) |
| --- | --- | --- |
| O=C(Nc1cccnc1)c1cccc2ccc(-c3ccccc3C(F)(F)F)nc12 [Compound 86] | A (Fold activation >200%) | B (EC1.5 1-25 uM) |
| O=C(Nc1ccncn1)c1cccc2ccc(-c3ccccc3C(F)(F)F)nc12 [Compound 87] | A (Fold activation >200%) | A (EC1.5<1.0 uM) |
| O=C(NC1CN2CCC1CC2)c1cccc2ccc(-c3cccc(C(F)(F)F)c3)nc12 (stereo not shown) [Compound 88] | – | C (EC1.5>25 uM) |
| O=C(Nc1cccc(Cl)n1)c1cccc2ccc(-c3cccc(C(F)(F)F)c3)nc12 [Compound 89] | – | C (EC1.5>25 uM) |
| O=C(O)c1ccc(NC(=O)c2cccc3ccc(-c4cccc(C(F)(F)F)c4)nc23)o1 [Compound 90] | B (Fold Activation <200%) | B (EC1.5 1-25 uM) |
| CCOC(=O)c1csc(NC(=O)c2cccc3ccc(-c4cccc(C(F)(F)F)c4)nc23)n1 [Compound 91] | A (Fold activation >200%) | A (EC1.5<1.0 uM) |
| O=C(Nc1cccc2ccc(-c3ccccc3OC(F)(F)F)nc12)c1cscn1 [Compound 92] | A (Fold activation >200%) | A (EC1.5<1.0 uM) |
| CS(=O)(=O)c1ccccc1-c1ccc2cccc(NC(=O)c3cscn3)c2n1 [Compound 93] | A (Fold activation >200%) | A (EC1.5<1.0 uM) |
| O=C(NC1CCCC1)c1cccc2ccc(-c3cccc(OC4CCNCC4)c3)nc12 [Compound 94] | A (Fold activation >200%) | B (EC1.5 1-25 uM) |
| O=C(NCc1cccnc1)c1cccc2ccc(-c3cccc(OC4CCNCC4)c3)nc12 [Compound 95] | A (Fold activation >200%) | B (EC1.5 1-25 uM) |
| O=C(Nc1nccs1)c1cccc2ccc(-c3ccc(C(F)(F)F)cc3)nc12 [Compound 96] | – | C (EC1.5>25 uM) |
| O=C(Nc1ccccn1)c1cccc2ccc(-c3ccc(C(F)(F)F)cc3)nc12 [Compound 97] | – | C (EC1.5>25 uM) |
| O=C(Nc1cccnc1)c1cccc2ccc(-c3ccc(C(F)(F)F)cc3)nc12 [Compound 98] | – | C (EC1.5>25 uM) |
| O=C(Nc1ccncn1)c1cccc2ccc(-c3ccc(C(F)(F)F)cc3)nc12 [Compound 99] | – | C (EC1.5>25 uM) |
| O=C(Nc1cccnn1)c1cccc2ccc(-c3cccc(C(F)(F)F)c3)nc12 [Compound 100] | A (Fold activation >200%) | A (EC1.5<1.0 uM) |
| O=C(O)c1csc(NC(=O)c2cccc3ccc(-c4cccc(C(F)(F)F)c4)nc23)n1 [Compound 101] | A (Fold activation >200%) | B (EC1.5 1-25 uM) |
| O=C(NC1CCCC1)c1cccc2ccc(-c3cccc(O[C@@H]4CCNC4)c3)nc12 [Compound 102] | A (Fold activation >200%) | B (EC1.5 1-25 uM) |
| O=C(NCc1ccncc1)c1cccc2ccc(-c3cccc(O[C@@H]4CCNC4)c3)nc12 [Compound 103] | A (Fold activation >200%) | B (EC1.5 1-25 uM) |
| FC(F)(F)c1cccc(-c2ccc3cccc(CNc4nccs4)c3n2)c1 [Compound 104] | – | C (EC1.5>25 uM) |
| FC(F)(F)c1cccc(-c2ccc3cccc(CNc4cccnc4)c3n2)c1 [Compound 105] | – | C (EC1.5>25 uM) |
| CS(=O)(=O)c1ccc(-c2ccc3cccc(NC(=O)c4cscn4)c3n2)cc1 [Compound 106] | B (Fold Activation <200%) | B (EC1.5 1-25 uM) |
| O=C(Nc1cccc2ccc(-c3ccc4c(c3)OCO4)nc12)c1cscn1 [Compound 107] | B (Fold Activation <200%) | A (EC1.5<1.0 uM) |

| Structure (SMILES) | % Fold Act. (percent maximum fold activation) | EC1.5 (concentration of test compound that results in 150% activation of SIRT1) |
| --- | --- | --- |
| O=C(Nc1nccs1)c1cccc2ccc(-c3cccc(N4CCOCC4)c3)nc12 [Compound 108] | A (Fold activation >200%) | A (EC1.5<1.0 uM) |
| O=C(Nc1ccccn1)c1cccc2ccc(-c3cccc(N4CCOCC4)c3)nc12 [Compound 109] | A (Fold activation >200%) | A (EC1.5<1.0 uM) |
| O=C(Nc1cccnc1)c1cccc2ccc(-c3cccc(N4CCOCC4)c3)nc12 [Compound 110] | A (Fold activation >200%) | A (EC1.5<1.0 uM) |
| O=C(Nc1ccncn1)c1cccc2ccc(-c3cccc(N4CCOCC4)c3)nc12 [Compound 111] | A (Fold activation >200%) | A (EC1.5<1.0 uM) |
| O=S(=O)(Nc1cccc2ccc(-c3cccc(OC(F)(F)F)c3)nc12)N1CCCC1 [Compound 112] | – | C (EC1.5>25 uM) |
| O=S(=O)(Nc1nccs1)Nc1cccc2ccc(-c3cccc(OC(F)(F)F)c3)nc12 [Compound 113] | – | C (EC1.5>25 uM) |
| O=S(=O)(Nc1cccnc1)Nc1cccc2ccc(-c3cccc(OC(F)(F)F)c3)nc12 [Compound 114] | – | C (EC1.5>25 uM) |
| O=S(=O)(Nc1cccc2ccc(-c3cccc(OC(F)(F)F)c3)nc12)N1CCNCC1 [Compound 115] | B (Fold Activation <200%) | B (EC1.5 1-25 uM) |
| O=C(Nc1nccs1)c1cccc2ncc(-c3ccccc3)nc12 [Compound 116] | – | C (EC1.5>25 uM) |
| O=C(Nc1cccnc1)c1cccc2ncc(-c3ccccc3)nc12 [Compound 117] | B (Fold Activation <200%) | B (EC1.5 1-25 uM) |
| O=C(Nc1ccccn1)c1cccc2ncc(-c3ccccc3)nc12 [Compound 118] | B (Fold Activation <200%) | B (EC1.5 1-25 uM) |
| O=C(Nc1cccc2ccc(-c3cccc(CN4CCCC4)c3)nc12)c1cscn1 [Compound 119] | A (Fold activation >200%) | A (EC1.5<1.0 uM) |
| O=C(Nc1cccc2ccc(-c3cccc(CN4CCOCC4)c3)nc12)c1cscn1 [Compound 120] | A (Fold activation >200%) | A (EC1.5<1.0 uM) |
| O=C(Nc1cccc2ccc(-c3cccc(CN4CCNCC4)c3)nc12)c1cscn1 [Compound 121] | A (Fold activation >200%) | A (EC1.5<1.0 uM) |
| CN(C)Cc1cccc(-c2ccc3cccc(NC(=O)c4cscn4)c3n2)c1 [Compound 122] | A (Fold activation >200%) | A (EC1.5<1.0 uM) |
| O=C(Nc1nccs1)c1cccc2ncc(-c3cccc(C(F)(F)F)c3)nc12 [Compound 123] | – | C (EC1.5>25 uM) |
| O=C(Nc1cccnc1)c1cccc2ncc(-c3cccc(C(F)(F)F)c3)nc12 [Compound 124] | B (Fold Activation <200%) | A (EC1.5<1.0 uM) |
| O=C(Nc1nccs1)c1cccc2ncc(-c3cccc(OC(F)(F)F)c3)nc12 [Compound 125] | – | C (EC1.5>25 uM) |
| O=C(Nc1cccnc1)c1cccc2ncc(-c3cccc(OC(F)(F)F)c3)nc12 [Compound 126] | B (Fold Activation <200%) | B (EC1.5 1-25 uM) |
| O=C(Nc1ccccn1)c1cccc2ncc(-c3cccc(OC(F)(F)F)c3)nc12 [Compound 127] | – | C (EC1.5>25 uM) |
| O=C(Nc1ccncn1)c1cccc2ncc(-c3cccc(OC(F)(F)F)c3)nc12 [Compound 128] | – | C (EC1.5>25 uM) |
